# Measurements reported in US20250228832A1, “METHODS FOR TREATING DISORDERS AMELIORATED BY MUSCARINIC RECEPTOR ACTIVATION” (KARUNA THERAPEUTICS, INC., priority 2022, published 2025).
# Read-outs that look alike come from different tables or passages of the source.
# Tests used:
# Type in all cases: cell-based
# human M1 receptor = target: T1, human M1 receptor (Homo sapiens, UniProt P11229); assay: HTRF IP-One curve shift assay, M1
# T1 construct: expressed in transfected cells
# T1 sequence (P11229 1-460): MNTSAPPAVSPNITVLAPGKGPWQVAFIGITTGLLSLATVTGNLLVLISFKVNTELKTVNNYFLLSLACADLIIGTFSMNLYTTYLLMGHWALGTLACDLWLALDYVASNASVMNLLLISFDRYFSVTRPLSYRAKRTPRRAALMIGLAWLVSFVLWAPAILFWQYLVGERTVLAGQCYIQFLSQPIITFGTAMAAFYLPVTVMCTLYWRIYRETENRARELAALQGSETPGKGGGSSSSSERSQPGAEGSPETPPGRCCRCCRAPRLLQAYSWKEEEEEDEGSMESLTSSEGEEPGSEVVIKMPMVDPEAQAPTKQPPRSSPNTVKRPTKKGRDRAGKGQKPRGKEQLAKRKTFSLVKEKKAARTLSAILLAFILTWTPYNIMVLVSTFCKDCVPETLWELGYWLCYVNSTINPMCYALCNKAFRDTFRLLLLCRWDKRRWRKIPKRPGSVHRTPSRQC
# Protocol: (§1) HTRF IP-One assays were performed using frozen cell aliquots prepared from CHO-K1 cell lines stably expressing human M1, M3, or M5 receptors. Cells were frozen following typical cell freezing protocols. […] Dissociated cells were quenched in full media and collected by centrifugation at 290×g for 5 min. […] 1 mL aliquots of cells were dispensed into cryovial tubes and frozen in a controlled rate cryo-freezer container at −80° C. Cells were stored at −80° C. (or in liquid nitrogen if stored for at least six months) until the day of the assay.
# (§2) On the day before the assay, frozen cells were rapidly thawed in a 37° C. water bath, brought up in 20 mL of full media, and collected via centrifugation at 290×g for 5 min. […] Next, […] of cells (10,000 cells/well) were dispensed into 384-well coming plates in triplicate. Cells were incubated overnight in a 37° C., 5% CO2 cell incubator.
# (§3) Then, 2 μL of test compounds were added to the cells and incubated for 10 min at 37° C. in a 5% CO2 cell incubator. Next, 2 μL of diluted agonists serially diluted in assay buffer at 7× final assay concentration was added to assay plates. Finally, assay plates were incubated for two hours at 37° C. in a 5% CO2 cell incubator.
# (§4) Six μL of IP-1 detection reagents (IP-One Gq HTRF kit, Cisbio Cat #62IPAPEJ) were dispensed to the cells. First, the plates were incubated for two hours at room temperature (IP-One detection reagents were made according to Cisbio protocol). Then, plates were read on an Envision plate reader following the Cisbio guidelines.
# (§5) Raw data for all assays was transmitted directly from plate readers into the Beacon database for processing. All assay plates contained positive and negative control wells for data normalization and scaling. […] All control wells contained DMSO at a final assay concentration that matched the test compound wells.
# (§6) Counts from the standard curve wells were used to generate a sigmoidal standard curve, which was used to transform the raw counts from each well on the plate (scaling control wells and compound wells) into a pmol/well IP1 value.
# human M5 receptor = target: T2, human M5 receptor (Homo sapiens, UniProt P08912); assay: HTRF IP-One curve shift assay, M5; conditions: M5
# T2 construct: expressed in transfected cells
# T2 sequence (P08912 1-532): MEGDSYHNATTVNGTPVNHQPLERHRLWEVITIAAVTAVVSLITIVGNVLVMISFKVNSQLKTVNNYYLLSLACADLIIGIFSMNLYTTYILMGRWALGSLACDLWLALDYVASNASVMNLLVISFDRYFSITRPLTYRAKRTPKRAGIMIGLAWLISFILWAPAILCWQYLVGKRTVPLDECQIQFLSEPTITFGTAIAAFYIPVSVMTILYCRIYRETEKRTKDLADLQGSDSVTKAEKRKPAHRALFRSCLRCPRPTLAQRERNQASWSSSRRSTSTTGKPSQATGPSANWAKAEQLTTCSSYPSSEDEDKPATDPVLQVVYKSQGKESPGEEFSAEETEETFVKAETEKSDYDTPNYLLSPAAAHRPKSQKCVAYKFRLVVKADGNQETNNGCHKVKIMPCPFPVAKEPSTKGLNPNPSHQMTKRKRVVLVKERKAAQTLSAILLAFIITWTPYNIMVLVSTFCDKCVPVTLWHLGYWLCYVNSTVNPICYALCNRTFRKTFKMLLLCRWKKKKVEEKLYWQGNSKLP
# Protocol: as §1, §2, §3, §4, §5, §6
# human M3 receptor = target: T3, human M3 receptor (Homo sapiens, UniProt P20309); assay: HTRF IP-One curve shift assay, M3
# T3 construct: expressed in transfected cells
# Protocol: as §1, §2, §3, §4, §5, §6
# [1] = Emraclidine concentration 41.2 nM, read-out: Emax
# [2] = Emraclidine concentration 123 nM, read-out: Emax
# [3] = Emraclidine concentration 370 nM
# [4] = Emraclidine concentration 1110 nM, read-out: Emax
# [5] = Emraclidine concentration 3330 nM, read-out: Emax
# [6] = MK-4710 concentration 41.2 nM, read-out: Emax
# [7] = MK-4710 concentration 123 nM, read-out: Emax
# [8] = MK-4710 concentration 1110 nM, read-out: Emax
# [9] = MK-4710 concentration 3330 nM, read-out: Emax
# T3 sequence (P20309 whole entry): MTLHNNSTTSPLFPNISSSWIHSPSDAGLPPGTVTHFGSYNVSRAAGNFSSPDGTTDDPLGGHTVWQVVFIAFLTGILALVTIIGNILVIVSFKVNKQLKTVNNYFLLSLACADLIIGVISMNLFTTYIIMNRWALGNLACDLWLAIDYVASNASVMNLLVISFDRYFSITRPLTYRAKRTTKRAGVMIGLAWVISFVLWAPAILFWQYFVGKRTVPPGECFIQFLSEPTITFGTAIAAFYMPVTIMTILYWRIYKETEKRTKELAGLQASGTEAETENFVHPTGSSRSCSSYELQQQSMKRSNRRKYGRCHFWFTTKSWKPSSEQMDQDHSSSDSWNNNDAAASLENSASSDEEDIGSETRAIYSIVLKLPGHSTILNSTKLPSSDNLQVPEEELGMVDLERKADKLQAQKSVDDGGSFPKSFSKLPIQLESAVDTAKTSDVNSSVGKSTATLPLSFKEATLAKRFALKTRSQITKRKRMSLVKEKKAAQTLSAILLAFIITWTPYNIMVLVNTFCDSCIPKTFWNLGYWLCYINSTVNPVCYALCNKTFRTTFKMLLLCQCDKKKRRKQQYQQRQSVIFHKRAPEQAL
smiles,measurement,setting,value
"CCCCCCCOc1nsnc1C1=CCCCN1C [KTX-593, 3-(heptyloxy)-4-(1-methyl-1,4,5,6-tetrahydropyridin-2-yl)-1,2,5-thiadiazole]",EC50,human M1 receptor; Emraclidine concentration 0 nM,10.1 nM
same,Emax,human M1 receptor; Emraclidine concentration 0 nM,77.8%
same,Emax,human M1 receptor; [1],83.1%
same,Emax,human M1 receptor; [2],85.4%
same,Emax at […],human M1 receptor; [3],88.4%
same,Emax,human M1 receptor; [4],85.2%
same,Emax,human M1 receptor; [5],87.8%
same,Emax at […],human M1 receptor; Emraclidine concentration […],83.9%
same,"α (cooperativity, affinity shift)",human M1 receptor; M4 PAM Emraclidine,3.2
same,"β (cooperativity, efficacy shift)",human M1 receptor; M4 PAM Emraclidine,0.8
same,τ (agonist pharmacology),human M1 receptor; M4 PAM Emraclidine,0.0
same,"α (cooperativity, affinity shift)",human M1 receptor; M4 PAM MK-4710,4.1
same,"β (cooperativity, efficacy shift)",human M1 receptor; M4 PAM MK-4710,0.6
same,τ (agonist pharmacology),human M1 receptor; M4 PAM MK-4710,0.0
same,EC50,human M1 receptor; MK-4710 concentration 0 nM,8.7 nM
same,Emax,human M1 receptor; MK-4710 concentration 0 nM,83.7%
same,EC50,human M1 receptor; MK-4710 concentration 41.2 nM,7.6 nM
same,Emax,human M1 receptor; [6],82.7%
same,EC50,human M1 receptor; MK-4710 concentration 123 nM,8.3 nM
same,Emax,human M1 receptor; [7],79.9%
same,EC50,human M1 receptor; MK-4710 concentration 370 nM,6.5 nM
same,Emax at […],human M1 receptor; MK-4710 concentration 370 nM,78.3%
same,EC50,human M1 receptor; MK-4710 concentration 1110 nM,6.8 nM
same,Emax,human M1 receptor; [8],76.8%
same,EC50,human M1 receptor; MK-4710 concentration 3330 nM,5.3 nM
same,Emax,human M1 receptor; [9],76.7%
same,EC50,human M1 receptor; MK-4710 concentration […],8.8 nM
same,Emax at […],human M1 receptor; MK-4710 concentration […],77.6%
same,EC50,human M5 receptor; Emraclidine concentration 0 nM,403 nM
same,Emax,human M5 receptor; Emraclidine concentration 0 nM,63.6%
same,Emax,human M5 receptor; [1],71.8%
same,Emax,human M5 receptor; [2],68.8%
same,Emax at […],"human M5 receptor; Emraclidine concentration 370 nM, read-out: Emax",67.4%
same,Emax,human M5 receptor; [4],66.9%
same,Emax,human M5 receptor; [5],71.9%
same,Emax at […],"human M5 receptor; Emraclidine concentration […], read-out: Emax",67.1%
same,"α (cooperativity, affinity shift)",human M5 receptor; M4 PAM Emraclidine,10.6
same,"β (cooperativity, efficacy shift)",human M5 receptor; M4 PAM Emraclidine,1.1
same,τ (agonist pharmacology),human M5 receptor; M4 PAM Emraclidine,0.0
same,"α (cooperativity, affinity shift)",human M5 receptor; M4 PAM MK-4710,1.4
same,"β (cooperativity, efficacy shift)",human M5 receptor; M4 PAM MK-4710,0.8
same,τ (agonist pharmacology),human M5 receptor; M4 PAM MK-4710,0.1
same,EC50,human M5 receptor; MK-4710 concentration 0 nM,245 nM
same,Emax,human M5 receptor; MK-4710 concentration 0 nM,81.82%
same,Emax,human M5 receptor; [6],78.3%
same,Emax,human M5 receptor; [7],78.8%
same,Emax at […],"human M5 receptor; MK-4710 concentration 370 nM, read-out: Emax",76.6%
same,Emax,human M5 receptor; [8],69.7%
same,Emax,human M5 receptor; [9],77.3%
same,Emax at […],"human M5 receptor; MK-4710 concentration […], read-out: Emax",69.7%
same,EC50,human M3 receptor; Emraclidine concentration 0 nM,224 nM
same,Emax,human M3 receptor; Emraclidine concentration 0 nM,63.5%
same,Emax,human M3 receptor; [1],63.9%
same,Emax,human M3 receptor; [2],68.2%
same,Emax at […],human M3 receptor; [3],73.4%
same,Emax,human M3 receptor; [4],64.6%
same,Emax,human M3 receptor; [5],73%
same,Emax at […],human M3 receptor; Emraclidine concentration […],71.1%
same,"α (cooperativity, affinity shift)",human M3 receptor; M4 PAM Emraclidine,7.6
same,"β (cooperativity, efficacy shift)",human M3 receptor; M4 PAM Emraclidine,1.1
same,τ (agonist pharmacology),human M3 receptor; M4 PAM Emraclidine,0.0
same,"α (cooperativity, affinity shift)",human M3 receptor; M4 PAM MK-4710,6.2
same,"β (cooperativity, efficacy shift)",human M3 receptor; M4 PAM MK-4710,1.6
same,τ (agonist pharmacology),human M3 receptor; M4 PAM MK-4710,0.0
same,EC50,human M3 receptor; MK-4710 concentration 0 nM,45 nM
same,Emax,human M3 receptor; MK-4710 concentration 0 nM,80.8%
same,Emax,human M3 receptor; [6],75.4%
same,Emax,human M3 receptor; [7],66.6%
same,Emax at […],human M3 receptor; MK-4710 concentration 370 nM,76.7%
same,Emax,human M3 receptor; [8],74.3%
same,Emax,human M3 receptor; [9],86%
same,Emax at […],human M3 receptor; MK-4710 concentration […],72.7%
